Test results from patent US5672715A, “Herbicidal substituted 3-aryl-pyrazoles” (Monsanto Company, priority 1995, dated 1997).
Several values for one entry are separate records, joined by “and”; a condition that tells them apart may be missing. Equal entries are not always repeated.

Assays:
Assay in all cases: pre-emergence herbicide test
Format in all cases: in vivo
Corn = details: for inhibition at 1000.92 g/ha: 0.893 lb/A; for inhibition at 5043.82 g/ha: 4.5 lb/A; for inhibition at 7.95803 g/ha: 0.0071 lb/A; for inhibition at 40.0143 g/ha: 0.0357 lb/A
Summary of the method: (§1)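 Steps: compact topsoil in pan; place seeds; level-fill with cover soil; add a known amount of compound before or after covering; keep pans in greenhouse, bottom-watering as needed; rate % inhibition at about 14 days.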

Rice = details: Oryza sativa, read-out: % plant inhibition; for inhibition at 1000.92 g/ha: 0.893 lb/A; for inhibition at 5043.82 g/ha: 4.5 lb/A; for inhibition at 200.072 g/ha: 0.1785 lb/A; for inhibition at 7.95803 g/ha: 0.0071 lb/A; for inhibition at 40.0143 g/ha: 0.0357 lb/A
Summary of the method: as §1

Bedstraw Catchweed = details: for inhibition at 1000.92 g/ha: 0.893 lb/A; for inhibition at 5043.82 g/ha: 4.5 lb/A
Summary of the method: as §1

Barnyardgrass = details: Echinochloa crus-galli, pre-emergence, read-out: % plant inhibition; for inhibition at 1000.92 g/ha: 0.893 lb/A; for inhibition at 5043.82 g/ha: 4.5 lb/A; for inhibition at 200.072 g/ha: 0.1785 lb/A; for inhibition at 7.95803 g/ha: 0.0071 lb/A; for inhibition at 40.0143 g/ha: 0.0357 lb/A
Summary of the method: as §1

Wheat = details: Triticum aestivum, pre-emergence, read-out: % plant inhibition; for inhibition at 200.072 g/ha: 0.1785 lb/A; for inhibition at 1000.92 g/ha: 0.893 lb/A; for inhibition at 5043.82 g/ha: 4.5 lb/A
Summary of the method: as §1

Soybean = details: Glycine max, pre-emergence, read-out: % plant inhibition; for inhibition at 1000.92 g/ha: 0.893 lb/A; for inhibition at 5043.82 g/ha: 4.5 lb/A; for inhibition at 200.072 g/ha: 0.1785 lb/A; for inhibition at 7.95803 g/ha: 0.0071 lb/A; for inhibition at 40.0143 g/ha: 0.0357 lb/A
Summary of the method: as §1

Common Chickweed = details: pre-emergence, read-out: % plant inhibition; for inhibition at 200.072 g/ha: 0.1785 lb/A; for inhibition at 1000.92 g/ha: 0.893 lb/A; for inhibition at 5043.82 g/ha: 4.5 lb/A
Summary of the method: as §1

Cocklebur = details: for inhibition at 1000.92 g/ha / inhibition at 5043.82 g/ha / inhibition at 200.072 g/ha / inhibition at 7.95803 g/ha / inhibition at 40.0143 g/ha: Xanthium strumarium, pre-emergence, read-out: % plant inhibition; for inhibition at 5043.82 g/ha: 4.5 lb/A; for inhibition at 200.072 g/ha: 0.1785 lb/A; for inhibition at 7.95803 g/ha: 0.0071 lb/A; for inhibition at 40.0143 g/ha: 0.0357 lb/A
Summary of the method: as §1

Blackgrass = details: for inhibition at 200.072 g/ha: 0.1785 lb/A; for inhibition at 5043.82 g/ha: 4.5 lb/A
Summary of the method: as §1

Seedling Johnsongrass = details: Sorghum halepense, pre-emergence, 0.25 lb/A; read-out: % plant inhibition
Summary of the method: as §1

Wild Proso Millet = details: 0.25 lb/A, read-out: % plant inhibition
Summary of the method: as §1

Broadleaf Signalgrass = details: Urochloa platyphylla, 0.25 lb/A, read-out: % plant inhibition
Summary of the method: as §1

Shattercane = details: 0.25 lb/A, read-out: % plant inhibition
Summary of the method: as §1

[1] = Zea mays, pre-emergence, read-out: % plant inhibition
[2] = Galium aparine, pre-emergence, 0.1785 lb/A, read-out: % plant inhibition
[3] = Galium aparine, pre-emergence, read-out: % plant inhibition
[4] = Alopecurus myosuroides, pre-emergence, read-out: % plant inhibition
[5] = Alopecurus myosuroides, pre-emergence, 0.893 lb/A, read-out: % plant inhibition
[6] = Zea mays, pre-emergence, 0.1785 lb/A, read-out: % plant inhibition

SMILES	inhibition at 1000.92 g/ha (Corn; [1]) [%]	inhibition at 5043.82 g/ha (Corn; [1]) [%]	inhibition at 1000.92 g/ha (Rice) [%]	inhibition at 5043.82 g/ha (Rice) [%]	inhibition at 200.072 g/ha (Bedstraw Catchweed; [2]) [%]	inhibition at 1000.92 g/ha (Bedstraw Catchweed; [3]) [%]	inhibition at 1000.92 g/ha (Barnyardgrass) [%]	inhibition at 5043.82 g/ha (Barnyardgrass) [%]	inhibition at 1000.92 g/ha (Soybean) [%]	inhibition at 5043.82 g/ha (Soybean) [%]	inhibition at 1000.92 g/ha (Cocklebur; 0.893 lb/A) [%]	inhibition at 5043.82 g/ha (Cocklebur) [%]	inhibition at 200.072 g/ha (Corn; [6]) [%]	inhibition at 200.072 g/ha (Rice) [%]	inhibition at 200.072 g/ha (Barnyardgrass) [%]	inhibition at 200.072 g/ha (Soybean) [%]	inhibition at 200.072 g/ha (Cocklebur) [%]	inhibition at 40.0143 g/ha (Corn; [1]) [%]	inhibition at 40.0143 g/ha (Rice) [%]	inhibition at 40.0143 g/ha (Barnyardgrass) [%]	also measured
Cc1c(-c2cc(F)ccc2F)nn(C)c1C(F)(F)F [Compound 1, 3-(2,5-Difluorophenyl)-1,4-dimethyl-5-(trifluoromethyl)-1H-pyrazole]	0	10	25	0	0	0	0	50	0	0	0	0									inhibition at 5043.82 g/ha (Bedstraw Catchweed; [3]): 0%; inhibition at 200.072 g/ha (Wheat): 0%; inhibition at 1000.92 g/ha (Wheat): 0%; inhibition at 5043.82 g/ha (Wheat): 10%; inhibition at 200.072 g/ha (Common Chickweed): 0%; inhibition at 1000.92 g/ha (Common Chickweed): 0%; inhibition at 5043.82 g/ha (Common Chickweed): 0%; inhibition at 200.072 g/ha (Blackgrass; [4]): 0%; inhibition at 1000.92 g/ha (Blackgrass; [5]): 0%; inhibition at 5043.82 g/ha (Blackgrass; [4]): 15%
Cn1nc(-c2cc(F)ccc2F)c(C=O)c1C(F)(F)F [Compound 34]	0	0	0	0	0	0	0	0	0	0	0	0	0	0	0	0	0				inhibition at 5043.82 g/ha (Bedstraw Catchweed; [3]): 10%; inhibition at 200.072 g/ha (Wheat): 0%; inhibition at 1000.92 g/ha (Wheat): 0%; inhibition at 5043.82 g/ha (Wheat): 5%; inhibition at 200.072 g/ha (Common Chickweed): 0%; inhibition at 1000.92 g/ha (Common Chickweed): 0%; inhibition at 5043.82 g/ha (Common Chickweed): 0%; inhibition at 200.072 g/ha (Blackgrass; [4]): 0%; inhibition at 1000.92 g/ha (Blackgrass; [5]): 0%; inhibition at 5043.82 g/ha (Blackgrass; [4]): 25%
COc1cc(-c2nn(C)c(C(F)(F)F)c2C)c(F)cc1[N+](=O)[O-] [Compound 36]	90		65		100	100	100		10		85		55	0	90	0	0	10	0	20	inhibition at 7.95803 g/ha (Corn; [1]): 0%; inhibition at 7.95803 g/ha (Rice): 0%; % plant inhibition (Bedstraw Catchweed; 0.1785 lb/A): 80%; inhibition at 7.95803 g/ha (Bedstraw Catchweed; Galium aparine, pre-emergence, 0.0071 lb/A, read-out: % plant inhibition): 0%; inhibition at 7.95803 g/ha (Barnyardgrass): 0%; inhibition at 7.95803 g/ha (Wheat; 0.0071 lb/A): 0%; inhibition at 40.0143 g/ha (Wheat; 0.0357 lb/A): 0%; inhibition at 7.95803 g/ha (Soybean): 0%; inhibition at 40.0143 g/ha (Soybean): 0%; inhibition at 7.95803 g/ha (Common Chickweed; 0.0071 lb/A): 0%; inhibition at 7.95803 g/ha (Cocklebur): 0%; inhibition at 40.0143 g/ha (Cocklebur): 20%; % plant inhibition (Blackgrass; 0.893 lb/A): 100% and 50%; inhibition at 7.95803 g/ha (Blackgrass; Alopecurus myosuroides, pre-emergence, 0.0071 lb/A, read-out: % plant inhibition): 0%; inhibition at 40.0143 g/ha (Blackgrass; Alopecurus myosuroides, pre-emergence, 0.0357 lb/A, read-out: % plant inhibition): 0%
C#CCOc1cc(-c2nn(C)c(C(F)(F)F)c2C)c(F)cc1Cl [Compound 39]	100		100				100		100		100		95	85	100	95	95	80	70	100	inhibition at 7.95803 g/ha (Corn; [1]): 10%; inhibition at 280.212 g/ha (Corn; Zea mays, pre-emergence, 0.25 lb/A, read-out: % plant inhibition): 100%; inhibition at 7.95803 g/ha (Rice): 65%; inhibition at 7.95803 g/ha (Barnyardgrass): 80%; inhibition at 280.212 g/ha (Barnyardgrass; 0.25 lb/A): 100%; inhibition at 280.212 g/ha (Seedling Johnsongrass): 100%; inhibition at 7.95803 g/ha (Soybean): 0%; inhibition at 40.0143 g/ha (Soybean): 100%; inhibition at 280.212 g/ha (Soybean; 0.25 lb/A): 95%; inhibition at 280.212 g/ha (Wild Proso Millet): 100%; inhibition at 280.212 g/ha (Broadleaf Signalgrass): 100%; inhibition at 7.95803 g/ha (Cocklebur): 50%; inhibition at 40.0143 g/ha (Cocklebur): 80%; inhibition at 280.212 g/ha (Shattercane): 100%
Cc1c(-c2cc(O)c(Cl)cc2F)nn(C)c1C(F)(F)F [Compound 40]	5	85	0	65			35	100	20	20	45	100	0	0	0	0	0	0	0	0	inhibition at 40.0143 g/ha (Soybean): 0%; inhibition at 40.0143 g/ha (Cocklebur): 0%
Cc1c(-c2cc(F)c([N+](=O)[O-])cc2F)nn(C)c1C(F)(F)F [Compound 35]		55		0	30	100		95	40	55	55	90			0	0		0	0	0	% plant inhibition (Corn; 0.1785 lb/A): 5%; inhibition at 5043.82 g/ha (Bedstraw Catchweed; [3]): 100%; inhibition at 200.072 g/ha (Wheat): 0%; inhibition at 1000.92 g/ha (Wheat): 0%; inhibition at 5043.82 g/ha (Wheat): 10%; inhibition at 40.0143 g/ha (Soybean): 0%; inhibition at 200.072 g/ha (Common Chickweed): 0%; inhibition at 1000.92 g/ha (Common Chickweed): 35%; inhibition at 5043.82 g/ha (Common Chickweed): 95%; % plant inhibition (Cocklebur; 0.893 lb/A): 35%; inhibition at 40.0143 g/ha (Cocklebur): 0%; inhibition at 200.072 g/ha (Blackgrass; [4]): 0%; inhibition at 1000.92 g/ha (Blackgrass; [5]): 35%; inhibition at 5043.82 g/ha (Blackgrass; [4]): 80%
